Values joined by “and” are separate entries in the source; they are usually repeats but may differ in a detail not shown here. Identical values can stand only once.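 The compound was tested at five concentrations on cells cultured in 96-well plates, with a 48-hour exposure period. GI50 is the concentration that inhibits growth by half. TGI marks complete inhibition of growth.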
How the values were obtained:
Assay in all cases: inhibition of tumour cell growth, NCI panel, 48 h
SK-MEL-28 melanoma = test system: SK-MEL-28 melanoma
SNB-19 CNS = test system: SNB-19 CNS
ACHN renal = test system: ACHN renal
T-47D breast = test system: T-47D breast
MDA-MB-231 breast = test system: MDA-MB-231 breast
SW-620 colon = test system: SW-620 colon
RPMI-8226 leukemia = test system: RPMI-8226 leukemia
SF-295 CNS = test system: SF-295 CNS
DU-145 prostate = test system: DU-145 prostate
OVCAR-5 ovarian = test system: OVCAR-5 ovarian

Row | SMILES | GI50 (SK-MEL-28 melanoma) | TGI (SK-MEL-28 melanoma) | GI50 (SNB-19 CNS) | TGI (SNB-19 CNS) | TGI (ACHN renal) [µM] | TGI (T-47D breast) [µM] | TGI (MDA-MB-231 breast) [µM] | GI50 (SW-620 colon) | TGI (SW-620 colon) | GI50 (RPMI-8226 leukemia) | TGI (RPMI-8226 leukemia) | GI50 (SF-295 CNS) | TGI (SF-295 CNS) | TGI (DU-145 prostate) [µM] | GI50 (OVCAR-5 ovarian) | TGI (OVCAR-5 ovarian) | GI50 (ACHN renal) [nM] | GI50 (T-47D breast) [nM] | GI50 (MDA-MB-231 breast) [nM] | GI50 (DU-145 prostate) [nM]
1 | CSc1ccc(/C=C2\CNC/C(=C\c3ccc(SC)cc3)C2=O)cc1 | 150 µg/mL | > 371 µM and 150 µg/mL | 50.9 µM and 23.9 µg/mL | > 127 µM and 89.4 µg/mL | > 371 | > 371 | 362 | 150 µg/mL | > 371 µM and 150 µg/mL | 61.9 µg/mL | > 371 µM and 150 µg/mL | 9.25 µg/mL | > 150 µM and 33.5 µg/mL | > 371 | 150 µg/mL | > 371 µM and 150 µg/mL | – | – | – | –
2 | CC(C)(C)OC(=O)NCC(C#N)CNC(=O)OC(C)(C)C | – | > 100 µM | – | > 100 µM | > 100 | > 100 | > 100 | – | > 100 µM | – | > 100 µM | – | > 100 µM | > 100 | – | > 100 µM | – | – | – | –
3 | CNC(=O)Nc1ccc(-c2nc(N3CCOCC3)nc3c2cnn3C2CCOCC2)cc1 | 164 nM | 2.22 µM | 396 nM | > 100 µM | 1.74 | 0.341 | > 51.9 | 332 nM | > 100 µM | 205 nM | – | 71.6 nM | 0.585 µM | > 100 | 194 nM | 1.36 µM | 225 | 41.9 | 292 | 288
4 | Cc1cc2c(cc1C)NC1=C(N2)OC(c2c[nH]c3ccc(COc4ccccc4)cc23)C1=O (stereo not given) | – | > 100 µM | – | > 100 µM | > 100 | > 100 | 67.1 | – | > 100 µM | – | > 100 µM | – | > 100 µM | > 100 | – | > 100 µM | – | – | – | –
5 | COc1cc(-c2oc3ccccc3c(=O)c2O)cc(OC)c1OC | – | > 100 µM | – | > 100 µM | 75.4 | > 100 | > 100 | – | > 100 µM | – | > 100 µM | – | > 100 µM | > 100 | – | > 100 µM | – | – | – | –
6 | CC1(C)N=C(N)N=C(N)N1c1ccc(CCc2ccccc2)c(Cl)c1 | 391 nM | 15.9 µM | 172 nM | 15.4 µM | > 100 | 13 | 19.9 | 38.8 nM | 13.8 µM | 336 nM | 14 µM | 52.9 nM | 11.3 µM | 15.8 | 190 nM | 19.7 µM | 1970 | 698 | 1090 | 91.1

Reference: PubChem BioAssay (NCI)
